Results from ChEMBL document CHEMBL3763124, “N-Benzylbenzamides: A Novel Merged Scaffold for Orally Available Dual Soluble Epoxide Hydrolase/Peroxisome Proliferator-Activated Receptor γ Modulators” (J Med Chem, 2016).
Values after ≈ are worked out from the molar mass of the structure shown. Active and inactive are the calls of the source. No cut-off for these calls is given here.

Molecular target: T1, Peroxisome proliferator-activated receptor delta (Homo sapiens) (UniProt Q03181)
T1 sequence (whole entry): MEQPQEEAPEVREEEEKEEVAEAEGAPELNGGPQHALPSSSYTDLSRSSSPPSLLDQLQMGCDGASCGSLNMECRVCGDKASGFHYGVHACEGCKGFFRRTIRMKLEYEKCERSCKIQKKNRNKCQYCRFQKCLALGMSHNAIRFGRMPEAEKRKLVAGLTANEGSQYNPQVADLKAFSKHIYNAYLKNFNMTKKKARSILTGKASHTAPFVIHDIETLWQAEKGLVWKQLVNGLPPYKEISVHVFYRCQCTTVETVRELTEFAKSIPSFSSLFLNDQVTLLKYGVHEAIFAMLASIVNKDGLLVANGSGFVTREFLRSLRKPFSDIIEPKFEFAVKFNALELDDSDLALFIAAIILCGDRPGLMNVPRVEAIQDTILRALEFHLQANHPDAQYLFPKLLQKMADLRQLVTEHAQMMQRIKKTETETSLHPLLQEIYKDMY
Assay: Transactivation of human PPARdelta expressed in African green monkey COS7 cells at 10 uM incubated overnight by dual-glo luciferase reporter assay
Assay type: cell-based
Conditions: COS-7

Row | SMILES | Emax
1 | CCCC(Cc1ccc(C(=O)NCc2ccccc2C(F)(F)F)cc1)C(=O)OCC (stereo unspecified) | inactive
2 | CC(Cc1ccc(C(=O)NCc2ccccc2C(F)(F)F)cc1)C(=O)O (stereo unspecified) | inactive
3 | O=C(NCc1ccccc1C(F)(F)F)c1ccc(C2CC2C(=O)O)cc1 (stereo unspecified) | inactive
4 | CCC(Cc1cccc(C(=O)NCc2ccccc2C(F)(F)F)c1)C(=O)O (stereo unspecified) | inactive
5 | CCOC(=O)C(CC)Cc1cccc(C(=O)NCc2ccccc2C(F)(F)F)c1 (stereo unspecified) | inactive
6 | CCOC(=O)CCc1ccc(C(=O)NCc2ccccc2C(F)(F)F)cc1 | inactive
7 | CCCC(Cc1ccc(C(=O)NCc2ccccc2C(F)(F)F)cc1)C(=O)O (stereo unspecified) | inactive
8 | CCOC(=O)C(C)Cc1ccc(C(=O)NCc2ccccc2C(F)(F)F)cc1 (stereo unspecified) | inactive
9 | O=C(NCc1ccccc1C(F)(F)F)c1ccc(CC(C(=O)O)c2ccccc2)cc1 (stereo unspecified) | inactive
10 | CCOC(=O)/C(=C/c1ccc(C(=O)NCc2ccccc2C(F)(F)F)cc1)CC | inactive

Molecular target: T2, Bifunctional epoxide hydrolase 2 (Homo sapiens) (UniProt P34913)
T2 sequence (whole entry): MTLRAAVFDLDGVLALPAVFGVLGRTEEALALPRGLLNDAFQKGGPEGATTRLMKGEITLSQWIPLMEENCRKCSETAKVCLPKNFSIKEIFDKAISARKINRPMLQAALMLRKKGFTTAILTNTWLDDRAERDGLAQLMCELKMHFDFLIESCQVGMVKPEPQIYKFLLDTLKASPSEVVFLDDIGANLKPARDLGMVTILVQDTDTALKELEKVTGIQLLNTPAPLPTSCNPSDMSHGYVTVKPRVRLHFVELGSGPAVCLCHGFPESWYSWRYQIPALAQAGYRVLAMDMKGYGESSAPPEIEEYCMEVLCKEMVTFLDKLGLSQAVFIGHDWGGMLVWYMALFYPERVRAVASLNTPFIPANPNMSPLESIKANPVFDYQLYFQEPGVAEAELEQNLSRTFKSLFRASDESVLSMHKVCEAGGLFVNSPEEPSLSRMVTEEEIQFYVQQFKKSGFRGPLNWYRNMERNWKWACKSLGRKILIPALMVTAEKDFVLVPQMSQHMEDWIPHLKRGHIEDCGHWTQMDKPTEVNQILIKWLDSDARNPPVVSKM
Assay: Inhibition of human recombinant sEH using PHOME as substrate at 10 uM preincubated for 30 mins followed by substrate addition measured for 30 mins by fluorescence-based assay
Conditions: not given

Row | SMILES | inhibition [%]
11 | CCC(Cc1ccc(C(=O)NCc2ccccc2Cl)cc1)C(=O)O (stereo unspecified) | 20
12 | CCC(Cc1ccc(C(=O)NCc2ccc(OC)cc2)cc1)C(=O)O (stereo unspecified) | 34
13 | CCC(Cc1ccc(C(=O)NCc2ccccc2Br)cc1)C(=O)O (stereo unspecified) | 34
14 | CCC(Cc1ccc(C(=O)NCc2ccccc2OC(F)(F)F)cc1)C(=O)O (stereo unspecified) | 23
15 | CCC(Cc1ccc(C(=O)NCc2ccccc2)cc1)C(=O)O (stereo unspecified) | 4
16 | CCC(Cc1ccc(C(=O)NCc2ccccc2C)cc1)C(=O)O (stereo unspecified) | 25
17 | CCC(Cc1ccc(C(=O)NCc2ccc(F)cc2)cc1)C(=O)O (stereo unspecified) | 28

Molecular target: T3, Peroxisome proliferator-activated receptor alpha (Homo sapiens) (UniProt Q07869)
T3 sequence (whole entry): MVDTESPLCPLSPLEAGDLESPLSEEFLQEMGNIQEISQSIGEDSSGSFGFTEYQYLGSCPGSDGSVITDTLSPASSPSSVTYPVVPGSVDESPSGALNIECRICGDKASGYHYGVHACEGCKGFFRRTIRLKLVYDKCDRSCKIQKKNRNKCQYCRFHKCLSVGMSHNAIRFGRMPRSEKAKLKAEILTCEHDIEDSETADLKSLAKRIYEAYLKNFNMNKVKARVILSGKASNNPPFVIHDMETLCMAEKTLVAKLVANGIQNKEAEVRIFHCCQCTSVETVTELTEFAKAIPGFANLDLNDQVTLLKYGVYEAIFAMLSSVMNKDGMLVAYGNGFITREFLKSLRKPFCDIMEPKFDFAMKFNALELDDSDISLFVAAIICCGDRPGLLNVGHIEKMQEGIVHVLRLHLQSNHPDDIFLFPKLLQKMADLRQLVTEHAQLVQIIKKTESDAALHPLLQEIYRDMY
Assay: Transactivation of human PPARalpha expressed in African green monkey COS7 cells at 10 uM incubated overnight by dual-glo luciferase reporter assay
Assay type: cell-based
Conditions: COS-7

Row | SMILES | Activity [%]
18 | CCC(Cc1cccc(C(=O)NCc2ccccc2C(F)(F)F)c1)C(=O)O (stereo unspecified) | 34

Molecular target: T4, Peroxisome proliferator-activated receptor delta (Homo sapiens, UniProt Q03181)
T4 sequence (Q03181 whole entry): T1 sequence (whole entry)
Assay: Transactivation of human PPARdelta expressed in African green monkey COS7 cells incubated overnight by dual-glo luciferase reporter gene assay
Assay type: cell-based
Conditions: cos-7

Row | SMILES | EC50
19 | CCC(Cc1ccc(C(=O)NCc2ccccc2Cl)cc1)C(=O)O (stereo unspecified) | Not Active
20 | CCC(Cc1ccc(C(=O)NCc2ccc(OC)cc2)cc1)C(=O)O (stereo unspecified) | Not Active
21 | CCC(Cc1ccc(C(=O)NCc2ccccc2Br)cc1)C(=O)O (stereo unspecified) | Not Active
22 | CCC(Cc1ccc(C(=O)NCc2ccccc2OC(F)(F)F)cc1)C(=O)O (stereo unspecified) | Not Active
23 | CCC(Cc1ccc(C(=O)NCc2ccccc2)cc1)C(=O)O (stereo unspecified) | Not Active
24 | CCCC(Cc1ccc(C(=O)NCc2ccccc2C(F)(F)F)cc1)C(=O)OCC (stereo unspecified) | Not Active
25 | CC(Cc1ccc(C(=O)NCc2ccccc2C(F)(F)F)cc1)C(=O)O (stereo unspecified) | Not Active
26 | O=C(NCc1ccccc1C(F)(F)F)c1ccc(C2CC2C(=O)O)cc1 (stereo unspecified) | Not Active
27 | CCC(Cc1cccc(C(=O)NCc2ccccc2C(F)(F)F)c1)C(=O)O (stereo unspecified) | Not Active
28 | CCOC(=O)C(CC)Cc1cccc(C(=O)NCc2ccccc2C(F)(F)F)c1 (stereo unspecified) | Not Active
29 | CCC(Cc1ccc(C(=O)NCc2ccccc2C)cc1)C(=O)O (stereo unspecified) | Not Active
30 | CCOC(=O)CCc1ccc(C(=O)NCc2ccccc2C(F)(F)F)cc1 | Not Active
31 | CCCC(Cc1ccc(C(=O)NCc2ccccc2C(F)(F)F)cc1)C(=O)O (stereo unspecified) | Not Active
32 | CCOC(=O)C(C)Cc1ccc(C(=O)NCc2ccccc2C(F)(F)F)cc1 (stereo unspecified) | Not Active
33 | O=C(NCc1ccccc1C(F)(F)F)c1ccc(CC(C(=O)O)c2ccccc2)cc1 (stereo unspecified) | Not Active
34 | CCOC(=O)/C(=C/c1ccc(C(=O)NCc2ccccc2C(F)(F)F)cc1)CC | Not Active
35 | CCC(Cc1ccc(C(=O)NCc2ccc(F)cc2)cc1)C(=O)O (stereo unspecified) | Not Active

Molecular target: T5, Peroxisome proliferator-activated receptor alpha (Homo sapiens, UniProt Q07869)
T5 sequence (Q07869 whole entry): T3 sequence (whole entry)
Conditions: cos-7
Description: Transactivation of human PPARalpha expressed in African green monkey COS7 cells incubated overnight by dual-glo luciferase reporter gene assay

Row | SMILES | EC50
36 | CCC(Cc1ccc(C(=O)NCc2ccccc2Cl)cc1)C(=O)O (stereo unspecified) | Not Active
37 | CCC(Cc1ccc(C(=O)NCc2ccc(OC)cc2)cc1)C(=O)O (stereo unspecified) | Not Active
38 | CCC(Cc1ccc(C(=O)NCc2ccccc2Br)cc1)C(=O)O (stereo unspecified) | Not Active
39 | CCC(Cc1ccc(C(=O)NCc2ccccc2OC(F)(F)F)cc1)C(=O)O (stereo unspecified) | Not Active
40 | CCC(Cc1ccc(C(=O)NCc2ccccc2)cc1)C(=O)O (stereo unspecified) | Not Active
41 | CCCC(Cc1ccc(C(=O)NCc2ccccc2C(F)(F)F)cc1)C(=O)OCC (stereo unspecified) | Not Active
42 | CC(Cc1ccc(C(=O)NCc2ccccc2C(F)(F)F)cc1)C(=O)O (stereo unspecified) | Not Active
43 | O=C(NCc1ccccc1C(F)(F)F)c1ccc(C2CC2C(=O)O)cc1 (stereo unspecified) | Not Active
44 | CCOC(=O)C(CC)Cc1cccc(C(=O)NCc2ccccc2C(F)(F)F)c1 (stereo unspecified) | Not Active
45 | CCC(Cc1ccc(C(=O)NCc2ccccc2C)cc1)C(=O)O (stereo unspecified) | Not Active
46 | CCOC(=O)CCc1ccc(C(=O)NCc2ccccc2C(F)(F)F)cc1 | Not Active
47 | CCCC(Cc1ccc(C(=O)NCc2ccccc2C(F)(F)F)cc1)C(=O)O (stereo unspecified) | Not Active
48 | CCOC(=O)C(C)Cc1ccc(C(=O)NCc2ccccc2C(F)(F)F)cc1 (stereo unspecified) | Not Active
49 | O=C(NCc1ccccc1C(F)(F)F)c1ccc(CC(C(=O)O)c2ccccc2)cc1 (stereo unspecified) | Not Active
50 | CCOC(=O)/C(=C/c1ccc(C(=O)NCc2ccccc2C(F)(F)F)cc1)CC | Not Active
51 | CCC(Cc1ccc(C(=O)NCc2ccc(F)cc2)cc1)C(=O)O (stereo unspecified) | Not Active

Molecular target: T3, Peroxisome proliferator-activated receptor alpha (Homo sapiens)
Assay: Transactivation of human PPARalpha expressed in African green monkey COS7 cells incubated overnight by dual-glo luciferase reporter assay relative to GW7647
Assay type: cell-based
Conditions: COS-7

Row | SMILES | Emax
52 | CCC(Cc1ccc(C(=O)NCc2ccccc2Cl)cc1)C(=O)O (stereo unspecified) | inactive
53 | CCC(Cc1ccc(C(=O)NCc2ccc(OC)cc2)cc1)C(=O)O (stereo unspecified) | inactive
54 | CCC(Cc1ccc(C(=O)NCc2ccccc2Br)cc1)C(=O)O (stereo unspecified) | inactive
55 | CCC(Cc1ccc(C(=O)NCc2ccccc2OC(F)(F)F)cc1)C(=O)O (stereo unspecified) | inactive
56 | CCC(Cc1ccc(C(=O)NCc2ccccc2)cc1)C(=O)O (stereo unspecified) | inactive
57 | CCCC(Cc1ccc(C(=O)NCc2ccccc2C(F)(F)F)cc1)C(=O)OCC (stereo unspecified) | inactive
58 | CC(Cc1ccc(C(=O)NCc2ccccc2C(F)(F)F)cc1)C(=O)O (stereo unspecified) | inactive
59 | O=C(NCc1ccccc1C(F)(F)F)c1ccc(C2CC2C(=O)O)cc1 (stereo unspecified) | inactive
60 | CCOC(=O)C(CC)Cc1cccc(C(=O)NCc2ccccc2C(F)(F)F)c1 (stereo unspecified) | inactive
61 | CCC(Cc1ccc(C(=O)NCc2ccccc2C)cc1)C(=O)O (stereo unspecified) | inactive
62 | CCOC(=O)CCc1ccc(C(=O)NCc2ccccc2C(F)(F)F)cc1 | inactive
63 | CCCC(Cc1ccc(C(=O)NCc2ccccc2C(F)(F)F)cc1)C(=O)O (stereo unspecified) | inactive
64 | CCOC(=O)C(C)Cc1ccc(C(=O)NCc2ccccc2C(F)(F)F)cc1 (stereo unspecified) | inactive
65 | O=C(NCc1ccccc1C(F)(F)F)c1ccc(CC(C(=O)O)c2ccccc2)cc1 (stereo unspecified) | inactive
66 | CCOC(=O)/C(=C/c1ccc(C(=O)NCc2ccccc2C(F)(F)F)cc1)CC | inactive
67 | CCC(Cc1ccc(C(=O)NCc2ccc(F)cc2)cc1)C(=O)O (stereo unspecified) | inactive

Test system: not listed separately
Assay: Solubility of the compound in water by microplate reader analysis
Assay type: physicochemical
Conditions: not given

Row | SMILES | solubility [µM]
68 | CCC(Cc1ccc(C(=O)NCc2ccc(OC)cc2)cc1)C(=O)O (stereo unspecified) | 375 (≈ 128 µg/mL)
69 | CCC(Cc1ccc(C(=O)NCc2ccccc2Br)cc1)C(=O)O (stereo unspecified) | 375 (≈ 146 µg/mL)
70 | CCC(Cc1ccc(C(=O)NCc2ccccc2OC(F)(F)F)cc1)C(=O)O (stereo unspecified) | 375 (≈ 148 µg/mL)
71 | CCCC(Cc1ccc(C(=O)NCc2ccccc2C(F)(F)F)cc1)C(=O)OCC (stereo unspecified) | 3.75 (≈ 1.58 µg/mL)
72 | CC(Cc1ccc(C(=O)NCc2ccccc2C(F)(F)F)cc1)C(=O)O (stereo unspecified) | 375 (≈ 137 µg/mL)
73 | CCOC(=O)CCc1ccc(C(=O)NCc2ccccc2C(F)(F)F)cc1 | 3.75 (≈ 1.42 µg/mL)
74 | CCCC(Cc1ccc(C(=O)NCc2ccccc2C(F)(F)F)cc1)C(=O)O (stereo unspecified) | 375 (≈ 148 µg/mL)
75 | CCOC(=O)C(C)Cc1ccc(C(=O)NCc2ccccc2C(F)(F)F)cc1 (stereo unspecified) | 7.5 (≈ 2.95 µg/mL)
76 | O=C(NCc1ccccc1C(F)(F)F)c1ccc(CC(C(=O)O)c2ccccc2)cc1 (stereo unspecified) | 75 (≈ 32.1 µg/mL)
